Reference: ChEMBL document CHEMBL4033685, “C21-steroidal pregnane sapogenins and their derivatives as anti-inflammatory agents” (Bioorg Med Chem, 2017)
Activity calls are given as the source filed them. No cut-off for these calls is given here.

Key:
THP-1 [1] = assay: Effect on RelB protein expression in human THP1 cells at 10 uM after 3 hrs by Western blot analysis; assay type: functional, cell-based
Toll-like receptor 4 [2] = biological target: T1, Toll-like receptor 4 (Homo sapiens, UniProt O00206); assay: Antagonist activity at TLR4 (unknown origin) expressed in human AD293 cells assessed as inhibition of LPS/ATP-stimulated TLR4/NF-kB signaling pathway after 16 hrs by luciferase reporter gene assay; assay type: cell-based
T1 sequence (O00206 whole entry): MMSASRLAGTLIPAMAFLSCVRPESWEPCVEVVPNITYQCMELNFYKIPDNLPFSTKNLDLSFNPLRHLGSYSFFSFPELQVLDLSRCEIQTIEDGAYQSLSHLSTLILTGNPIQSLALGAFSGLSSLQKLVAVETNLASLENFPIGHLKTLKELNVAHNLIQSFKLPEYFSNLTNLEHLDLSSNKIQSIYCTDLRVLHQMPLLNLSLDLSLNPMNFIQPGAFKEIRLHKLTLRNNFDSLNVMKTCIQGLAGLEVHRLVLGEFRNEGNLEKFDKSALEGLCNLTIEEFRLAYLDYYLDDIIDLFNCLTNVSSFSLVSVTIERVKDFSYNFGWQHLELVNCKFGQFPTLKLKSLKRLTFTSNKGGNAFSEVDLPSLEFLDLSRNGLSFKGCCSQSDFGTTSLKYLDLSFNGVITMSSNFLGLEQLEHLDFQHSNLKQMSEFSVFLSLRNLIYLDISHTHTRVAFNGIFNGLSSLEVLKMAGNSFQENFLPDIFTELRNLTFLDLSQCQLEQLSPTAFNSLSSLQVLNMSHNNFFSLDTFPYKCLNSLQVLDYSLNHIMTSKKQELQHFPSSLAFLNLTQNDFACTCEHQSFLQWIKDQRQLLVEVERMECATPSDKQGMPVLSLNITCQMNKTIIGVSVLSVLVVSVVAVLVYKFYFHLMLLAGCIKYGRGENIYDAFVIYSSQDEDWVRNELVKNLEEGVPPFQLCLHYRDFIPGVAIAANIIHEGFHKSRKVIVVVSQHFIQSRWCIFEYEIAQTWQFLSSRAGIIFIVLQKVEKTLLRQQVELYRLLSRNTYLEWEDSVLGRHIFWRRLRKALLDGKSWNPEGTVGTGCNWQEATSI

Homo sapiens = species on record: Homo sapiens; assay: Inhibition of TNFalpha-stimulated NF-kB signaling pathway (unknown origin) expressed in human AD293 cells after 4 hrs by luciferase reporter gene assay; assay type: cell-based
AD293 [3] = assay: Cytotoxicity against human AD293 cells assessed as reduction in cell viability after 24 hrs by methylene blue dye based spectrophotometric method; conditions: ad293, 24 h
Toll-like receptor 4 [4] = biological target: T1, Toll-like receptor 4; assay: Antagonist activity at TLR4 in human THP1 cells assessed as inhibition of LPS-stimulated IL-1beta level at 10 uM by bead based immunoassay; assay type: cell-based
Toll-like receptor 4 [5] = biological target: T1, Toll-like receptor 4; assay: Antagonist activity at TLR4 in human THP1 cells assessed as inhibition of LPS-stimulated TNFalpha level at 10 uM by bead based immunoassay; assay type: cell-based
Toll-like receptor 4 [6] = biological target: T1, Toll-like receptor 4; assay: Antagonist activity at TLR4 in human THP1 cells assessed as inhibition of LPS-stimulated IL-6 level at 10 uM by bead based immunoassay; assay type: cell-based
[7] = biological target: Toll-like receptor 3 (Homo sapiens) (UniProt O15455); assay: Antagonist activity at TLR3 in human THP1 cells assessed as inhibition of poly IC-stimulated IL-1beta level at 10 uM by bead based immunoassay; assay type: cell-based
Chain of Toll-like receptor 3 (Homo sapiens) (O15455 whole entry): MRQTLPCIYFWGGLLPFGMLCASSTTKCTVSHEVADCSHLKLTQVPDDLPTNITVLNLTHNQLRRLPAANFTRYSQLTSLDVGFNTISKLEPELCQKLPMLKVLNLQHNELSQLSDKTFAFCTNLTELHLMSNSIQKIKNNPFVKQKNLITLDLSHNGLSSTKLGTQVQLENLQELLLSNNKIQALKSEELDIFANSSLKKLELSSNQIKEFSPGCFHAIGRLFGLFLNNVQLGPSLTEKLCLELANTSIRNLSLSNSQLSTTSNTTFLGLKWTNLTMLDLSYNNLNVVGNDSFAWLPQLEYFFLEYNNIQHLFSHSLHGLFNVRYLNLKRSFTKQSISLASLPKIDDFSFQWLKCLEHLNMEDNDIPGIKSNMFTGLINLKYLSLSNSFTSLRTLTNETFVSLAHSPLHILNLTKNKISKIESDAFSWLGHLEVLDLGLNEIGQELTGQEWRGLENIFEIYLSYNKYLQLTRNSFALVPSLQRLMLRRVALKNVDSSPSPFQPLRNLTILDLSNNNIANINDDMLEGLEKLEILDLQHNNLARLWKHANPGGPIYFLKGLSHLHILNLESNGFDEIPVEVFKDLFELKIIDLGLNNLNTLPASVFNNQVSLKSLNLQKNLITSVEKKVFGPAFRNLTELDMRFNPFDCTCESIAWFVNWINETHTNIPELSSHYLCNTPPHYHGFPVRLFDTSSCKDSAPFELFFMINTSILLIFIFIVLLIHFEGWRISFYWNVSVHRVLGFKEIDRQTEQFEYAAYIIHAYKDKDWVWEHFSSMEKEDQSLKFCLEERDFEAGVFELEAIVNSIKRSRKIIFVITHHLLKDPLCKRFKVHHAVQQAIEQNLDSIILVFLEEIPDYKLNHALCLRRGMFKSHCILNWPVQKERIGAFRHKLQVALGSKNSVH

[8] = biological target: Toll-like receptor 3 (Homo sapiens) (UniProt O15455); assay: Antagonist activity at TLR3 in human THP1 cells assessed as inhibition of poly IC-stimulated TNFalpha level at 10 uM by bead based immunoassay; assay type: cell-based
[9] = biological target: Toll-like receptor 2 (Homo sapiens) (UniProt O60603); assay: Antagonist activity at TLR2 in human THP1 cells assessed as inhibition of PGN-stimulated TNFalpha level at 10 uM by bead based immunoassay; assay type: cell-based
Chain of Toll-like receptor 2 (Homo sapiens) (O60603 whole entry): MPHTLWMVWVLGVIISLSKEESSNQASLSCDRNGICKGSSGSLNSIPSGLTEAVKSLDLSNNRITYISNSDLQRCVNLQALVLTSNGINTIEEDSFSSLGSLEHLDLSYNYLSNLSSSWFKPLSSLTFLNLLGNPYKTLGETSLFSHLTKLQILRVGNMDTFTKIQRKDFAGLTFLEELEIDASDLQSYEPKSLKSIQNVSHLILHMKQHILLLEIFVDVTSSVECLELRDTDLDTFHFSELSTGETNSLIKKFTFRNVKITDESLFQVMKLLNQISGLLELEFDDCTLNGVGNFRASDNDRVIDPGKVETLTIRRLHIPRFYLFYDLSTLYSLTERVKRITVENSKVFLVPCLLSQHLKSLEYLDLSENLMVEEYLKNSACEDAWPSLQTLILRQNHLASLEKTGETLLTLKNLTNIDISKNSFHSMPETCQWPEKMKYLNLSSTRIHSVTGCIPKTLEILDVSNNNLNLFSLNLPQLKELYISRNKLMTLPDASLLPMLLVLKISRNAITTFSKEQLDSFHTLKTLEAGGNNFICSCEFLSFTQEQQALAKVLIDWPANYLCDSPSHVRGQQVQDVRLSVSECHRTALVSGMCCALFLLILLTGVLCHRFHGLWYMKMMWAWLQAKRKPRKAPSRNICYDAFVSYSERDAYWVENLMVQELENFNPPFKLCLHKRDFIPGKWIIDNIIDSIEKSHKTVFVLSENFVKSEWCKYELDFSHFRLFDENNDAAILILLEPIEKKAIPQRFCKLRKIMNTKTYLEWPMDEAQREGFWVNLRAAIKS

[10] = biological target: Transcription factor p65 (Homo sapiens) (UniProt Q04206); assay: Inhibition of TNFalpha-stimulated NF-kB p65 activation (unknown origin) expressed in human AD293 cells assessed as nuclear translocation of p65 at 10 uM after 3 hrs by confocal microscopic method; assay type: cell-based
Chain of Transcription factor p65 (Homo sapiens) (Q04206 whole entry): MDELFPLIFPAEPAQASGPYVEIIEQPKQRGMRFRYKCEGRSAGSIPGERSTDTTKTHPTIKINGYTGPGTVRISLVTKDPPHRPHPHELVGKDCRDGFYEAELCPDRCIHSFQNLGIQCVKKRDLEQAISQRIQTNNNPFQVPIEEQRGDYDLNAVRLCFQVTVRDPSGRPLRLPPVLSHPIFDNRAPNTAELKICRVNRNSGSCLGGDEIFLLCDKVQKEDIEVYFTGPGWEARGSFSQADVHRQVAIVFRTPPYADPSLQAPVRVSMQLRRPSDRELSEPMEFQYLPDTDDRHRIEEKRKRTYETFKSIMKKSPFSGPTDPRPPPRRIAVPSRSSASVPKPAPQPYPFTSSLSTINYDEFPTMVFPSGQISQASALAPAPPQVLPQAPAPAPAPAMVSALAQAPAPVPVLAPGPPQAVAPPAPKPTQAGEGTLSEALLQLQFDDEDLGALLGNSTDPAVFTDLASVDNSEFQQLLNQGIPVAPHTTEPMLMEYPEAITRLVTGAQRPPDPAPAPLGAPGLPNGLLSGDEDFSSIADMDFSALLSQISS

[11] = biological target: Transcription factor p65 (Homo sapiens) (UniProt Q04206); assay: Inhibition of TNFalpha-stimulated NF-kB p65 phosphorylation (unknown origin) expressed in human AD293 cells at 10 uM after 3 hrs by Western blot analysis; assay type: cell-based
[12] = biological target: T2, NF-kappa-B inhibitor alpha (Homo sapiens) (UniProt P25963); assay: Inhibition of TNFalpha-stimulated IkBalpha phosphorylation in human AD293 cells at 10 uM after 3 hrs by Western blot analysis; assay type: cell-based
T2 sequence (whole entry): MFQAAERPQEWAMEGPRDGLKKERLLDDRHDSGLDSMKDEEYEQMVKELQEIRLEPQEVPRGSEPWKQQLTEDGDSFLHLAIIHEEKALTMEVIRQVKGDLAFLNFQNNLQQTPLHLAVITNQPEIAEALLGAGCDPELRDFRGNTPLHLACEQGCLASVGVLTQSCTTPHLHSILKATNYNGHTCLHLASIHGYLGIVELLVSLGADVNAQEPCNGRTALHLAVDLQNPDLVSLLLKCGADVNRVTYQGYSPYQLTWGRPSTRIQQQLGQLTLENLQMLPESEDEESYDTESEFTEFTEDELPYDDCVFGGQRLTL

AD293 [13] = assay: Effect on IkBalpha protein expression in TNFalpha-stimulated human AD293 cells at 10 uM after 3 hrs by Western blot analysis; assay type: functional, cell-based
THP-1 [14] = assay: Upregulation of IKKalpha protein expression in human THP1 cells at 10 uM after 3 hrs by Western blot analysis; assay type: functional, cell-based
AD293 [15] = assay: Upregulation of IKKalpha protein expression in TNFalpha-stimulated human AD293 cells at 10 uM after 3 hrs by Western blot analysis; assay type: functional, cell-based
AD293 [16] = assay: Upregulation of IKKalpha protein expression in human AD293 cells at 10 uM after 3 hrs by Western blot analysis; assay type: functional, cell-based
Toll-like receptor 4 [17] = biological target: T1, Toll-like receptor 4; assay: Antagonist activity at TLR4 in human THP1 cells assessed as inhibition of LPS-stimulated NF-kB non-canonical signaling pathway by measuring decrease in p100 phosphorylation at 10 uM after 3 hrs by Western blot analysis; assay type: cell-based
Toll-like receptor 4 [18] = biological target: T1, Toll-like receptor 4; assay: Antagonist activity at TLR4 in human THP1 cells assessed as inhibition of LPS-stimulated NF-kB non-canonical signaling pathway by measuring decrease in RelB expression at 10 uM after 3 hrs by Western blot analysis; assay type: cell-based
[19] = biological target: T3, Nuclear factor NF-kappa-B p100 subunit (Homo sapiens) (UniProt Q00653); assay: Effect on p100/p52 phosphorylation in human THP1 cells at 10 uM after 3 hrs by Western blot analysis; assay type: cell-based
T3 sequence (whole entry): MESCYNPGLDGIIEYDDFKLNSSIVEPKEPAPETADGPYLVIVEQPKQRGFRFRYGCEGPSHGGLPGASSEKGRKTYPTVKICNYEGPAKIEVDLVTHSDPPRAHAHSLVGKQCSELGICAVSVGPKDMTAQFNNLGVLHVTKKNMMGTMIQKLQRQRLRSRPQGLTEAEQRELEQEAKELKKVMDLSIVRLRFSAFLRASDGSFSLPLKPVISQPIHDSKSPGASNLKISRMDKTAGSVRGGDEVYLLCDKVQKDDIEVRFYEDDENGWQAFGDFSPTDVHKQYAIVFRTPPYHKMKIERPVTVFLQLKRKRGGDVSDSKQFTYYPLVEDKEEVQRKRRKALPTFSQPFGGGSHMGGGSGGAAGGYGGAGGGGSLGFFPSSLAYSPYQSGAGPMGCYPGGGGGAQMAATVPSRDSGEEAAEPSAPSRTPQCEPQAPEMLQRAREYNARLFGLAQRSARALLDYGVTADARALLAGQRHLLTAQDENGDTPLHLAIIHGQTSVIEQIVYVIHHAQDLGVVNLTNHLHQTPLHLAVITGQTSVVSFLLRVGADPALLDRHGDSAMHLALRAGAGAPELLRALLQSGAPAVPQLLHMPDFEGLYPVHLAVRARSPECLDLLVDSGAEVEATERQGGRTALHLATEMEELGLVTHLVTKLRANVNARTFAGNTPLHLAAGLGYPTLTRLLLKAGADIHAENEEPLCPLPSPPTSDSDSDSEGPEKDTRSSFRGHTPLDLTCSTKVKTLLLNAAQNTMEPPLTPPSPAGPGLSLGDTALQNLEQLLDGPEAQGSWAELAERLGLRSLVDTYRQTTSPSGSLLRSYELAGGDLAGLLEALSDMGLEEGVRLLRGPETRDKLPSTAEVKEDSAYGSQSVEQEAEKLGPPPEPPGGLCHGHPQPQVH

Toll-like receptor 4 [20] = biological target: T1, Toll-like receptor 4; assay: Antagonist activity at TLR4 in human THP1 cells harboring human TRAF6 assessed as inhibition of LPS-stimulated IL-1beta level at 10 uM by bead based immunoassay; assay type: cell-based
Toll-like receptor 4 [21] = biological target: T1, Toll-like receptor 4; assay: Antagonist activity at TLR4 in human THP1 cells harboring human TRAF6 assessed as inhibition of LPS-stimulated TNFalpha level at 10 uM by bead based immunoassay; assay type: cell-based
Toll-like receptor 4 [22] = biological target: T1, Toll-like receptor 4; assay: Antagonist activity at TLR4 in human THP1 cells harboring human TRAF6 assessed as inhibition of LPS-stimulated IL-6 level at 10 uM by bead based immunoassay; assay type: cell-based

Row | SMILES | Activity (THP-1 [1]) | EC50 (Toll-like receptor 4 [2]) [µM] | EC10 (Homo sapiens) [µM] | CC10 (AD293 [3]) [µM] | inhibition (Toll-like receptor 4 [4]) | inhibition (Toll-like receptor 4 [5]) | inhibition (Toll-like receptor 4 [6]) | inhibition [7] | inhibition [8] | inhibition [9] | inhibition [10] | inhibition [11] | inhibition [12] | Activity (AD293 [13]) | Activity (THP-1 [14]) | Activity (AD293 [15]) | Activity (AD293 [16]) | inhibition (Toll-like receptor 4 [17]) | inhibition (Toll-like receptor 4 [18]) | Activity [19] | further results
1 | CC(=O)[C@]1(O)CC[C@@]2(O)[C@]1(C)[C@H](OC(=O)c1ccc(O)cc1)C[C@@H]1[C@@]3(C)CC[C@H](OC(=O)CCl)CC3=CC[C@]12O | inactive | 3.27 | > 10 | > 10 | Active | Active | Active | Active | Active | Active | inactive | inactive | inactive | inactive | Active | Active | Active | inactive | inactive | inactive | inhibition (Toll-like receptor 4 [20]): inactive; inhibition (Toll-like receptor 4 [21]): inactive; inhibition (Toll-like receptor 4 [22]): inactive
2 | COc1ccc(/C=C/C(=O)O[C@H]2CC[C@@]3(C)C(=CC[C@]4(O)[C@@H]3C[C@@H](OC(=O)/C=C(\C)C(C)C)[C@@]3(C)[C@]4(O)CC[C@@]3(O)C(C)=O)C2)cc1 | inactive | 3.95 | > 10 | > 10 | Active | Active | Active | Active | Active | Active | inactive | inactive | inactive | inactive | Active | Active | Active | inactive | inactive | inactive | inhibition (Toll-like receptor 4 [20]): inactive; inhibition (Toll-like receptor 4 [21]): inactive; inhibition (Toll-like receptor 4 [22]): inactive
